Data taken from patent US11572350B1, “Benzothia(di)azepine compounds and their use as bile acid modulators” (Albireo AB, priority 2020, dated 2023).

What was measured:
human LBAT = molecular target: T1, human LBAT (Homo sapiens, UniProt Q14973); experiment: LBAT (h/m) assay: 3H-taurocholic acid uptake in human LBAT-overexpressing cells; format: cell-based; settings: 0.3 μM 3H-taurocholic acid and 7.5 μM cold taurocholic acid, 20 minutes, read-out: hLBAT IC50
T1 construct: expressed in transfected cells; kept under Geneticin selection
T1 sequence (Q14973 1-349): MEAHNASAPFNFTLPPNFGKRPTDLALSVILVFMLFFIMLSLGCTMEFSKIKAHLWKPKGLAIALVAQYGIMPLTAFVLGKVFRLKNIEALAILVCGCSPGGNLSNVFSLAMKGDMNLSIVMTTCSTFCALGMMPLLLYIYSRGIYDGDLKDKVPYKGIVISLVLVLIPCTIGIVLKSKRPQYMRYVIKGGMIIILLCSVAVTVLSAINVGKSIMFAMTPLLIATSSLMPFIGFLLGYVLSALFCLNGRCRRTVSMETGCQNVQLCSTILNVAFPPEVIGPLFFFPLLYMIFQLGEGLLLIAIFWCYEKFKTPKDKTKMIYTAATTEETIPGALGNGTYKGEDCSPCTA
Experimental: LBAT (h/m) Assay Protocol
20,000 cells (Human or Mouse LBAT-overexpressing cells) were seeded in 96-wells plate (Corning CLS3809) in 100 μL MEM-alpha medium (Gibco 12571-063) supplemented with 10% FBS (Gibco 10438026) containing Geneticin (Gibco 10131-027) (1 mg/mL) and incubated at 37° C. in 5% CO2 for 24 hours. After incubation, media was decanted from the wells and cells were washed two times with 300 μL of basal MEM-alpha medium (FBS-free). After decanting basal MEM-alpha medium each time, plates were tapped against paper towel to ensure maximum removal of residual media. For human LBAT, incubation mix was prepared by adding test inhibitor dilutions (3-fold serial dilution in DMSO (Sigma D2650), 10 points) in MEM-alpha (without FBS) containing 0.3 μM 3H-taurocholic acid (ARC ART-1368) and 7.5 μM cold taurocholic acid (Sigma T4009) (maintaining 0.2% final DMSO concentration). For mouse LBAT, incubation mix was prepared by adding test inhibitor dilutions (3-fold serial dilution in DMSO, 10 points) in MEM-alpha (without FBS) containing 0.3 μM 3H-taurocholic acid and 25 μM cold taurocholic acid maintaining 0.2% final DMSO concentration). 50 μL of incubation mix containing test inhibitors was then added to the wells (in duplicate) and the plates were incubated for 20 minutes in a CO2 incubator at 37° C. After incubation, the reaction was stopped by keeping the plates on ice water mix for 2-3 minutes and then the incubation mix was aspirated completely from the wells. The wells were washed two times with 250 μL of chilled unlabelled 1 mM taurocholic acid dissolved in HEPES (Gibco 15630080)-buffered (10 mM) HBSS (Gibco 14175079) (pH 7.4). The plates were tapped against a paper towel after every wash to ensure maximum removal of blocking buffer.
100 μL of MicroScint-20 (PerkinElmer 6013621) was added to the wells and kept overnight at room temperature before reading the plates in TopCount NXT™ Microplate Scintillation and Luminescence Counter from PerkinElmer under 3H Test protocol (set at 120 seconds reading time per well, with normal plate orientation).
(§1) Preparation of Test Compound Dilutions
(§2) All test compounds were provided in powder form at room temperature. 10 mM DMSO stocks of the test compounds were prepared, aliquoted and stored at −20° C. From the 10 mM DMSO stock of the compounds, a 3-fold serial dilution in DMSO was prepared to get a total of 10 dilutions of the test compounds. 0.5 μL of this dilution in DMSO was added to 250 μL of FBS-free basal media containing 3H-taurocholic acid and cold taurocholic acid to prepare the incubation mixture.

human IBAT = molecular target: T2, human IBAT (Homo sapiens, UniProt Q12908); experiment: IBAT (h/m) assay: 3H-taurocholic acid uptake in human IBAT-overexpressing cells; format: cell-based; settings: 0.25 μM 3H-taurocholic acid and 5 μM cold taurocholic acid, 20 minutes, highest test concentration 10 μM, read-out: hIBAT IC50
T2 construct: expressed in transfected cells; kept under Puromycin selection
T2 sequence (Q12908 1-348): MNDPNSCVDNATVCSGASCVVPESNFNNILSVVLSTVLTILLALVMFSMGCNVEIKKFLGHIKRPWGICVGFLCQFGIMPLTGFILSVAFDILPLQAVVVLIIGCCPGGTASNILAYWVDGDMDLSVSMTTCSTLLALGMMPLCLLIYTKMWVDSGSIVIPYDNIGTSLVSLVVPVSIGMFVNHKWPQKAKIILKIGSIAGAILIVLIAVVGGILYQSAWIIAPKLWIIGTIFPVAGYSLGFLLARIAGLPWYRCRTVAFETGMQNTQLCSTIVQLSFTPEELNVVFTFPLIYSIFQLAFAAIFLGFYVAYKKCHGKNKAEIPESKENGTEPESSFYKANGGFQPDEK
Experimental: IBAT (h/m) Assay Protocol
10,000 cells (Human or Mouse IBAT-overexpressing cells) were seeded in 96-wells plate (Corning CLS3809) in 200 μL MEM-alpha medium (Gibco 12571-063) supplemented with 10% FBS (Gibco 10438026) containing Puromycin (Gibco A1113803) (10 μg/mL) and incubated at 37° C. in 5% CO2 for 48 hours. After incubation, media was decanted from the wells and cells were washed two times with 300 μL of basal MEM-alpha medium (FBS-free). After decanting basal MEM-alpha medium each time, plates were tapped against paper towel to ensure maximum removal of residual media. Test inhibitor dilutions (highest test concentration being 10 μM, 3-fold serial dilution, 10 points) prepared in DMSO (Sigma D2650) were added in incubation mix (maintaining 0.2% final DMSO concentration) containing 0.25 μM 3H-taurocholic acid (ARC ART-1368) and 5 μM of cold taurocholic acid (Sigma T4009). 50 μL of incubation mix containing test inhibitors was then added to the wells (in duplicate) and the plates were incubated for 20 minutes in a CO2 incubator at 37° C. After incubation, the reaction was stopped by keeping the plates on ice water mix for 2-3 minutes and then the incubation mix was aspirated completely from the wells. The wells were washed two times with 250 μL of chilled unlabelled 1 mM taurocholic acid dissolved in HEPES (Gibco 15630080)-buffered (10 mM) HBSS (Gibco 14175079) (pH 7.4). The plates were tapped against a paper towel after every wash to ensure maximum removal of blocking buffer.
100 μL of MicroScint-20 (PerkinElmer 6013621) was added to the wells and kept overnight at room temperature before reading the plates in TopCount NXT™ Microplate Scintillation and Luminescence Counter from PerkinElmer under 3H Test protocol (set at 120 seconds reading time per well).
as §1, §2

[1] = Bidirectional permeability assay (Caco-2 cells); format: in vitro ADME; settings: human, FaSSIF donor buffer, 120 minutes at 37° C.; for Papp A→B at 120 min, 10 µM: Caco-2, pH 7.4, absorptive direction (A2B); for Papp B→A at 120 min, 10 µM: Caco-2, pH 7.4, secretory direction (B2A)
Description: Bidirectional Permeability Assay (Caco-2 Cells)
HepaRG-Based Assay Protocol

OATP KO mice = experiment: Effect of LBAT selective compounds on serum bile acid levels in OATP KO mice; format: in vivo; settings: male OATP KO mice; oral dosing at the indicated doses; FIGS. 1 to 4; n=4
Description: Effect of LBAT Selective Compounds on Serum Bile Acid Levels in OATP KO Mice
Male OATP KO mice (Oatp1a/1b cluster knockout mice, Taconic, USA) aged 8 to 9 weeks were used in the studies. After completion of quarantine and acclimatization period, animals were randomized based on body weight into experimental groups (n=4 mice in each). On the experimental day, a baseline blood sample was collected followed by oral dosing of vehicle (0.5% CMC, 0.1% Tween 80) or compound of Example 3, 6, 13 or 15 at the indicated doses. Blood samples were then collected at various time points after dose (indicated in each graph). Blood was allowed to clot, and serum was collected by centrifugation at 3000 g, 4° C. for 15 minutes and stored at −80° C. for further analysis. The total bile acid concentration in each serum sample was determined by using the CELL BIOLABS Total Bile Acids kit (STA631) according to manufacturer's instructions. Mean±SEM, n=4.

`CCCCC1CN(c2ccc(F)cc2)c2cc(SC)c(O/C=C/C(=O)O)cc2S(=O)(=O)N1` (racemic) [Example 1, (E)-3-((3-Butyl-5-(4-fluorophenyl)-7-(methylthio)-1,1-dioxido-2,3,4,5-tetrahydro-1,2,5-benzothiadiazepin-8-yl)oxy)acrylic acid] showed an IC50 (human LBAT) of 0.001 µM, an IC50 (human IBAT) of 1.67 µM and a Papp A→B at 120 min, 10 µM [1] of 7.3 ×10⁻⁶ cm/s. It also gave a Papp B→A at 120 min, 10 µM [1] of 17.2 ×10⁻⁶ cm/s.
For `CCCCC1CN(c2ccc(F)cc2)c2cc(SCC)c(O/C=C/C(=O)O)cc2S(=O)(=O)C1` (racemic) [Example 7, (E)-3-((3-Butyl-7-(ethylthio)-5-(4-fluorophenyl)-1,1-dioxido-2,3,4,5-tetrahydro-1,5-benzothiazepin-8-yl)oxy)acrylic acid], the IC50 (human LBAT) was 0.0026 µM, the IC50 (human IBAT) was over 10 µM and the Papp A→B at 120 min, 10 µM [1] was 11.3 ×10⁻⁶ cm/s. For the same compound, the Papp B→A at 120 min, 10 µM [1] was 8.9 ×10⁻⁶ cm/s.
In the case of `CCCCC1CN(c2ccc(F)cc2)c2cc(SC)c(O/C=C(\F)C(=O)O)cc2S(=O)(=O)C1` (racemic) [Example 10, (Z)-3-((3-butyl-5-(4-fluorophenyl)-7-(methylthio)-1,1-dioxido-2,3,4,5-tetrahydro-1,5-benzothiazepin-8-yl)oxy)-2-fluoroacrylic acid], the IC50 (human LBAT) is reported as 0.0016 µM, the IC50 (human IBAT) is reported as 0.827 µM and the Papp A→B at 120 min, 10 µM [1] is reported as 2.9 ×10⁻⁶ cm/s. The Papp B→A at 120 min, 10 µM [1] was 8.5 ×10⁻⁶ cm/s.
Work on `CCCCC1CN(c2ccc(F)cc2)c2cc(SCC)c(O/C=C(\F)C(=O)O)cc2S(=O)(=O)C1` (racemic) [Example 16, (Z)-3-((3-butyl-7-(ethylthio)-5-(4-fluorophenyl)-1,1-dioxido-2,3,4,5-tetrahydro-1,5-benzothiazepin-8-yl)oxy)-2-fluoroacrylic acid] yielded an IC50 (human LBAT) of 0.0025 µM, an IC50 (human IBAT) of 1.38 µM and a Papp A→B at 120 min, 10 µM [1] of 1 ×10⁻⁶ cm/s. It also gave a Papp B→A at 120 min, 10 µM [1] of 3.6 ×10⁻⁶ cm/s.
Compound `CCCCC1CN(c2ccc(F)cc2)c2cc(SC)c(O/C=C(\F)C(=O)O)cc2S(=O)(=O)N1C` (racemic) [Example 19, (Z)-3-((3-butyl-5-(4-fluorophenyl)-2-methyl-7-(methylthio)-1,1-dioxido-2,3,4,5-tetrahydro-1,2,5-benzothiadiazepin-8-yl)oxy)-2-fluoroacrylic acid] has an IC50 (human LBAT) of 0.0019 µM, an IC50 (human IBAT) of 0.248 µM and a Papp A→B at 120 min, 10 µM [1] of 4.3 ×10⁻⁶ cm/s. The Papp B→A at 120 min, 10 µM [1] was 6.1 ×10⁻⁶ cm/s.
With `CCCCC1CN(c2ccc(F)cc2)c2cc(SCC)c(O/C=C/C(=O)O)cc2S(=O)(=O)N1` (racemic) [Example 30, (E)-3-((3-butyl-7-(ethylthio)-5-(4-fluorophenyl)-1,1-dioxido-2,3,4,5-tetrahydro-1,2,5-benzothiadiazepin-8-yl)oxy)acrylic acid] the IC50 (human LBAT) was 0.0026 µM, the IC50 (human IBAT) was 4.1 µM and the Papp A→B at 120 min, 10 µM [1] was 6.5 ×10⁻⁶ cm/s. It also gave a Papp B→A at 120 min, 10 µM [1] of 8.7 ×10⁻⁶ cm/s.
With `CCCCC1CN(c2ccccc2)c2cc(SCC)c(O/C=C/C(=O)O)cc2S(=O)(=O)N1` (single isomer, unassigned) [Example 6, (E)-3-((3-butyl-7-(ethylthio)-1,1-dioxido-5-phenyl-2,3,4,5-tetrahydro-1,2,5-benzothiadiazepin-8-yl)oxy)acrylic acid] the IC50 (human LBAT) was 0.129 µM, the IC50 (human IBAT) was over 10 µM and the “Effect on serum bile acid levels” value (OATP KO mice) was “increased serum bile acid levels”.
Compound `CCCCC1CN(c2ccc(F)cc2)c2cc(SCC)c(O/C=C(\F)C(=O)O)cc2S(=O)(=O)C1` (single isomer, unassigned) [Example 18, (Z)-3-((3-butyl-7-(ethylthio)-5-(4-fluorophenyl)-1,1-dioxido-2,3,4,5-tetrahydro-1,5-benzothiazepin-8-yl)oxy)-2-fluoroacrylic acid] has an IC50 (human LBAT) of 0.0026 µM, an IC50 (human IBAT) of 0.647 µM and a Papp A→B at 120 min, 10 µM [1] of 1.1 ×10⁻⁶ cm/s. The Papp B→A at 120 min, 10 µM [1] was 3.1 ×10⁻⁶ cm/s.
In the case of `CCCCC1CN(c2ccc(F)cc2)c2cc(SC)c(O/C=C(\F)C(=O)O)cc2S(=O)(=O)N1C` (single isomer, unassigned) [Example 20, (Z)-3-((3-butyl-5-(4-fluorophenyl)-2-methyl-7-(methylthio)-1,1-dioxido-2,3,4,5-tetrahydro-1,2,5-benzothiadiazepin-8-yl)oxy)-2-fluoroacrylic acid], the IC50 (human LBAT) is reported as 0.0008 µM, the IC50 (human IBAT) is reported as 0.135 µM and the Papp A→B at 120 min, 10 µM [1] is reported as 2.7 ×10⁻⁶ cm/s. It also gave a Papp B→A at 120 min, 10 µM [1] of 10.5 ×10⁻⁶ cm/s.
Compound `CCCCC1CN(c2ccccc2)c2cc(SCC)c(O/C=C(\F)C(=O)O)cc2S(=O)(=O)N1C` (single isomer, unassigned) [Example 25, (Z)-3-((3-butyl-7-(ethylthio)-2-methyl-1,1-dioxido-5-phenyl-2,3,4,5-tetrahydro-1,2,5-benzothiadiazepin-8-yl)oxy)-2-fluoroacrylic acid] has an IC50 (human LBAT) of 0.0009 µM, an IC50 (human IBAT) of 0.431 µM and a Papp A→B at 120 min, 10 µM [1] of 1.9 ×10⁻⁶ cm/s. The Papp B→A at 120 min, 10 µM [1] was 3.9 ×10⁻⁶ cm/s.
